From a melting point compilation (Tetko et al.; mined from patent text by program, amines drawn as free bases though some values may be those of a salt)

Structure (SMILES)	melting point [°C]
O=C(NCC12CC3CC(CC(C3)C1)C2)c1cc(-c2nccnc2N2CCC(C(=O)O)CC2)ccc1Cl	136 to 140
COc1cc2oc(=O)c(CCO)c(C)c2c(OC)c1OC	95 to 97
CCCCCCCCCCCCCCCC(=O)OC1CN(C)C2(C1)C1CC3CC(C1)CC2C3 (centres undefined)	50 to 53
CCCCCCCCCCCCn1nnc(C(C(=O)Nc2c(C(C)C)cccc2C(C)C)N2CCSCC2)n1 (centres undefined)	97 to 98
O=Cc1ccc(OC2CCCC2)c(O)c1	87 to 89
O=C(CNC(=O)OCc1ccccc1)OCc1ccccc1	72
CN(C=O)C1CCC(=O)c2ccccc21 (single isomer, unassigned; (+))	92 to 93
Cn1cncc1C(N)(c1ccc(Cl)cc1)c1ccc2c(c1)C(c1cccc(Cl)c1)=NCc1nnnn1-2 (centres undefined)	218
CC[Si](CC)(CC)Oc1cccc2ncc3c(c12)CCCC3	110 to 111
Cc1cccc(COc2cccc(OCc3cc(=O)c4ccccc4n3C)c2)c1OCC(=O)O	192 to 194
CCCCCCCCCCCCCCCCc1ccc(S(=O)(=O)Nc2nncs2)cc1	118 to 119
CCOC(=O)c1cc2c(C)ccc(NS(=O)(=O)c3cccs3)c2[nH]1	180 to 181
CCOC(=O)C(=CNCc1cnsn1)C(=O)c1cc(F)c(F)cc1F	168 to 170
CC(=O)OCC(=O)NCc1cccc2c1C(=O)N(C1CCC(=O)NC1=O)C2=O (centres undefined)	108 to 110
CCC(=O)Cn1c(C)cn(N=Cc2cccnc2)c1=O	183 to 184
CC(C)(C)c1cc2c(c(C(C)(C)C)c1)OC(=O)C2c1ccc(OCCO)cc1 (centres undefined)	132 to 135
CCCCCCCCCCCCCOCCCCO	26 to 29
COc1cc(C(=O)O)ccc1Cc1cn(CCC(N)=O)c2ccc(C(=O)NCC3CCCC3)cc12	129 to 131
CC(C)(C)O[C@@H]1C[C@@H](COCc2ccccc2)N(S(=O)(=O)c2ccc3ccccc3c2)C1	101 to 103
CC(C)(C)OC(=O)C(ON1C(=O)c2ccccc2C1=O)c1ccccc1 (centres undefined)	121 to 122
OCCCCN1CCC(C(O)(c2ccc(F)cc2)c2ccc(F)cc2)CC1	130 to 131
CC(=O)OC1CSC(Oc2cncc(-c3ncccc3C)c2)C(OC(C)=O)C1OC(C)=O (centres undefined)	148 to 150
Cc1c2c(c(C(O)c3ccccn3)c(C)c1NC(=O)CC(C)(C)C)OC(C)(C)C2 (centres undefined)	176 to 177
CCOc1ccc(Nc2ccc(Nc3ccc(OCC)cc3)c3c2C(=O)c2c(Nc4ccc(OCC)cc4)ccc(Nc4ccc(OCC)cc4)c2C3=O)cc1	173 to 175
CCCc1c(OCC(C)CC(=O)NC(C)CCCc2cccnc2)ccc(C(C)=O)c1O (centres undefined)	77 to 83
C[C@@H](n1ncnn1)[C@](O)(Cn1ccnc1)c1ccc(F)cc1F	158 to 160
O=C(O)CCc1cn(Cc2ccc(OCc3ccc(-c4ccccc4)nc3)cc2)nc1-c1ccccc1	155 to 156

Structure (SMILES)	melting point [°C]
CN(C)Cc1cc2nc(C(=O)O)c(=O)[nH]c2cc1[N+](=O)[O-]	> 300
N#Cc1cc2c(c(C(=O)O)c1)NCCS2	241 to 242
CC1(C)COC(=O)N1c1nc(-c2sc(C#N)cc2Br)cs1	230 to 234
CCc1cccc(C)c1N(CN1CCOC1=O)C(=O)CCl	101 to 102
COC1NC(=O)C(OC)(OC)C1Cl (centres undefined)	141 to 142
CCCSc1ncnc2c1ncn2C1CC(F)C(CO)O1 (centres undefined)	85 to 86
COc1cncnc1N1CCN(CCCc2csc3ccc(C(N)=O)cc23)CC1	169 to 170
COc1cc2c(cc1[N+](=O)[O-])N(C)C(=O)CNC2	145 to 149
CC(C)(Cc1c(C(=O)c2ccccc2)c2cc(OCc3ccc4ccccc4n3)ccc2n1Cc1ccc(Cl)cc1)C(=O)O	165 to 166
CC(=O)OCC1OC(n2cc(Cc3ccc(Br)s3)c3c(Cl)cccc32)C(OC(C)=O)C(OC(C)=O)C1OC(C)=O (centres undefined)	185 to 187
CC(C)(C(=O)c1ccc(F)cc1)N1CCOCC1	63 to 66
COc1ccc(CNc2n[nH]cc2C(N)=O)cc1OC1CCCC1	128 to 130
Nc1c(Br)cc(F)cc1[N+](=O)[O-]	71.5 to 72.5
O=C1CN(c2ccc(Cc3ccccc3)cc2)C(=S)N1Cc1ccccc1	107
O=C(CC(Cc1ccccc1)(C(=O)O)C(=O)O)c1cccc(C(F)(F)F)c1	145 to 147
Cc1[nH]c2ccc(S(=O)(=O)c3ccccc3)cc2c1CCNC(=O)OC(C)(C)C	210 to 213
O=CC1(Nc2ccccc2)CCN(Cc2ccccc2)CC1	118 to 119
CC(=O)SC(CC(=O)c1ccccc1C)C(=O)O (centres undefined)	106 to 108
COC(CCCNC(=O)CCCCCCCCC(=O)NCCCC(OC)OC)OC	83.5 to 85.5
CSC(=S)N1Cc2[nH]c3ccccc3c2CC1CCO (centres undefined)	166 to 167
N#CCc1cc(I)cc(Cc2nc3c(F)c(F)cc(F)c3s2)c1	127 to 130
COc1cc(OC(C)=O)c2ccccc2c1OC(C)=O	135 to 136
NC(=O)c1csnc1-c1cccc(C(F)(F)F)c1	141 to 142
O=C1CCC(c2ccccc2)(c2ccccc2)C2CN(C(Cc3ccccc3)=NCCc3ccccc3)CC12 (centres undefined)	188
COc1ccccc1NC(=O)NC1N=C(c2ccc(Cl)cc2)c2c(sc(C)c2C)-n2c(C)nnc21 (centres undefined)	261 to 262
CC(C)(Oc1ccc(OCc2ccc3nn(-c4ccc(C(F)(F)F)cc4)cc3c2)cc1)C(=O)O	203 to 205
CCC(CC)c1nn(-c2ccc(C(F)(F)F)cn2)cc1CCCO	79 to 80

Now from value to molecule:

melting point [°C]	Structure (SMILES)
105 to 106	COc1cc(C2=NCCc3cc(C)ccc32)cc(OC)c1OC
180	Cc1ccccc1-c1cc(=O)c2cc(O)ccc2o1
345 to 347	CC1(C)CCn2c(nc(-c3ccccn3)cc2=O)N1
85 to 87	COc1nn(-c2ccc(C=O)c(Cl)c2)nc1Cl
228 to 230	O=C1C(=Cc2ccc(Cl)cc2)C(c2ccc(Cl)cc2)Oc2ccc(O)cc21 (centres undefined)
135 to 150	O=C(O)CCCc1cc2nc(Cl)ccc2n1S(=O)(=O)c1c(F)cc(F)cc1F
43 to 45	O=c1cc(Cl)cc(Cl)o1
251 to 252	CC1(C)CCc2[nH]cc(C(=O)Nc3ccc4c(c3)OCO4)c2C1=O
182 to 185	CN1CCN(Cc2ccc(NC(=O)C#Cc3ccc(-c4ccc(Cl)cc4)cc3)cc2)CC1
127 to 130	CCCC(=O)Nc1c(C(=O)c2cccc(C)c2)[nH]c2cc(Cl)ccc12
232	O=c1cc(-c2nc3ccccc3[nH]2)oc2ccccc12
163 to 165	Cc1ccc(-c2nc3cc([N+](=O)[O-])ccc3o2)s1
114	CC(C)On1nnc2ccc(Cn3ccnc3)cc21
226 to 228	CC(=O)Nc1ccc(C=C2CCc3ncc(C)cc3C2=O)cc1
145	O=C1c2ccccc2C(=O)N1OCc1ccco1
228	CC(=NNC(=O)c1cc([N+](=O)[O-])cc2ccccc12)c1ccncc1
150 to 151	COc1ccc(C(=O)Cc2c(Cl)cncc2Cl)c2c1OCCCO2
175 to 177	COc1cccc(OC)c1C(=O)NC1=NN=C(C(C)(C)C)CS1
193 to 195	Cc1nc(-c2ccc(C(=O)N3Cc4cccn4Cc4ccccc43)cc2)n(C)n1
235 to 237	O=C1OC2(C=C1c1ccccc1)C=C(c1ccccc1)C(=O)O2
353 to 355	O=c1[nH][nH]c(=O)c2nc3cc(Cl)ccc3cc12
217 to 218	Nc1nc2nc(SCc3ccccc3)nc(Cl)c2s1
82	CCc1cc(C(=O)Nc2c(C)cccc2C)no1

melting point [°C]	Structure (SMILES)
208 to 210	CS(=O)(=O)N(Cc1cccnc1)c1ccc(O)cc1
146	CCCCNC(=O)N(C)c1cccc(-c2ccc(C=C(OC)C(=O)O)cc2)c1
148 to 150	COc1ccc2ccc(C(=O)CNC(=O)Cc3ccccc3)cc2c1
215 to 220	Cc1cc(C)c2ccc(N)nc2n1
135 to 137	O=C(NCC1CC1)c1ccnc(N2CCN(Cc3ccc(F)cc3)C2=O)c1
83 to 85	CCc1nn(-c2ccc(Cl)nn2)c(CC)c1[N+](=O)[O-]
228	CC(=O)NNc1nc(-c2ccccc2)c2cc(Cl)ccc2n1
244 to 245	Oc1nn(-c2ccc(Cl)c(Cl)c2)cc1-c1ccccc1
170 to 173	COc1cc2c(Nc3ccc4cn[nH]c4c3)c(C#N)cnc2cc1OCCN1CCc2ccccc2C1
> 220	O=C(NCc1ccccc1)c1cn2c(=O)n(Cc3ccc(Cl)cc3)c(=O)cc2s1
112 to 114	C=Cc1ccc(Nc2nc(Cl)nc(Cl)c2Cl)cc1
131 to 132	CCOC(=O)C1=C(C)NC(COCCN)=C(C(=O)OC)C1c1cccc(Cl)c1Cl (centres undefined)
83 to 85	COC(=O)c1nccnc1Oc1ccccc1C(F)(F)F
123 to 125	CN(C)c1ccc(C(=O)N2CCC(Nc3nc(Nc4cccc(C(F)(F)F)c4)nc(OCC(F)(F)F)n3)CC2)cc1
242 to 245	N#Cc1[nH]c(=O)n(-c2ccc(Cl)cc2)c1C#N
102 to 103	Fc1ccc(C(c2ccc(F)cc2)C2CCN(CCCOc3c(Cl)cccc3Cl)CC2)cc1
134 to 136	Cc1cc(NC(=S)NC(=O)c2ccccc2Cl)ccc1-n1cccc1
150	CCc1cccc(NC(=O)c2ccn3c2CSC3c2cccnc2)n1 (centres undefined)
235 to 237	Cc1ccc2c(c1)C=Cc1sc(C)nc1C2c1cn(C)c(=O)[nH]c1=S (centres undefined)
249 to 253	CC(C)(O)c1nc(-c2ccc(-c3cnc4[nH]c(=O)n(CC5CCOCC5)c4n3)cc2)n[nH]1
217 to 220	O=c1[nH]cc(Cc2ccccc2)c2ccccc12
214	CS(=O)(=O)c1cc(C(N)Nc2ccccc2C(=O)Nc2cccc(C(F)(F)F)c2)ccn1 (centres undefined)
